Assay results reported in patent US6492137B1, “Response element compositions and assays employing same” (The Salk Institute for Biological Studies, priority 1989, dated 2002).

Biological target: T1, VDR (Homo sapiens, UniProt P11473)
T1 sequence (P11473 1-427): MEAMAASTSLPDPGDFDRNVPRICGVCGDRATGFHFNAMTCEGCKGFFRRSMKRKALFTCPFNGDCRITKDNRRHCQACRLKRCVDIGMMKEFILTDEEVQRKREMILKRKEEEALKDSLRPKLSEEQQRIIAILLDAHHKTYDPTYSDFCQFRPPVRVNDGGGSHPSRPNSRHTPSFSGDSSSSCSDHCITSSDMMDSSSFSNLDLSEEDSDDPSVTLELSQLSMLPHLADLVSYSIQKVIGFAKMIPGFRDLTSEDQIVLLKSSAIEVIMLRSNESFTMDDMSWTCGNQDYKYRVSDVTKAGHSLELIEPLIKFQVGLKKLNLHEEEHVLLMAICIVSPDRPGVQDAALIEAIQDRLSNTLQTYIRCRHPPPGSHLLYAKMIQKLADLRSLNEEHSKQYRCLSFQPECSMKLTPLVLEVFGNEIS
Assay: ΔSV-CAT reporter cotransfection assay in CV-1 cells with VDR expression plasmid, ±VD3
Type: cell-based
Design: expressed in transfected cells; host or cells: CV-1 (monkey kidney)
Conditions: VD3 100 nM
Description: Receptor expression plasmids used in the following cotransfection assays have been described previously (pRShTRβ [see Thompson, et al., Proc. Natl. Acad. Sci. U.S.A. 86: 3494-3498 (1989)]; pRShRARα [see Giguere, et al., Nature 330: 624-629 (1987)]; pRShRARβ and pRshRARγ [see Ishikawa, et al., Mol. Endocrinol, 4: 837-844 (1990)]; and pRShVDR, [Schule, et al., Cell 61: 497-504 (1990)]. A basal reporter plasmid ΔSV-CAT was constructed by replacing the TK promoter in TK-CAT [Damm, et al., Nature 339: 593-597 (1989)] with the SphI-HindIII fragment of the SV40 early promoter. All of the recombinant CAT reporter plasmids used herein harbor a single copy of the indicated oligonucleotides at the unique HindIII site upstream of the SV40 promoter. Identity of the inserted oligonucleotides was confirmed by sequencing. To improve production of receptor proteins in COS cells, a new eukaryotic expression vector pCMX was prepared by modifying the plasmid CDM8 [Seed, B., Nature 329: 840-842 (1987)]. The CDM8 was cut with MluI and StuI in order to release the DNA fragment encoding the CMV/T7 promoter, SV40 small t intron/poly A signal, polyoma virus enhancer/origin, and SV40 enhancer/origin. The resulting fragment was ligated to a larger fragment of PvuII-digested PUC19. An internal deletion was introduced between unique BamHI and BclI sites present in the DCM8 portion. […]

Substance: GDR-3: identical to DR-3 except half-site changed to AGAACA, a GRE half-site (SEQ ID NO:26) (AGCTTCAGAACAAGGAGAACAGAGAGCT; DNA, backbone not given here; double-stranded DNA response element with agct overhangs, cloned into reporter)
- vitamin D3 response (in words): completely inactive

Substance: GDR-4: identical to DR-4 except half-site changed to AGAACA, a GRE half-site (SEQ ID NO:28) (AGCTTCAGAACACAGGAGAACAGAGAGCT; DNA, backbone not given here; double-stranded DNA response element with agct overhangs, cloned into reporter)
- vitamin D3 response (in words): completely inactive
